Laboratory results reported in patent US20120178667A1, “METHODS FOR TREATING SEPTIC SHOCK” (THE GOVERNMENT OF THE UNITED STATES OF AMERICA, dba THE …, priority 2006, published 2012).

Legend:
[1] = system: murine bEND.3 endothelial cell line; assay: LPS-induced MIP-2 and IL-6 production by endothelial cells (ELISA of supernatants); type: cell-based; conditions: 15 μg/well or 20 μg/well peptide, 15 min pre-treatment, LPS 12.5 ng/well, 4-hour supernatants
Description: FIG. 1 is a set of bar graphs showing P13 inhibition of macrophage inflammatory protein (MIP)-2 and interleukin (IL)-6. Murine endothelial cell line bEND.3 (2×10^5 cells/48-well plate) were pre-treated for 15 minutes with P13 or scrambled control peptide at matching peptide concentrations (15 or 20 μg/well) and then with LPS (12.5 ng/well). MIP-2 and IL-6 were quantified by ELISA from 4-hour cell-free supernatants. Cytokine values represent means +/−S.D. from quadruplicate wells/experimental condition.
Quantification of cytokines from cell supernatants. IL-6 and MIP-2 ELISA kits were used to assay cytokine levels in cell culture supernatants according to the protocols provided by the manufacturer (R&D Systems, Minneapolis, Minn.).
Because endothelial cells can be activated and even damaged in response to LPS exposure, the effect of treatment with peptide P13 on LPS-induced cytokine responses from the murine bEND.3 endothelial cell line was examined. Treatment of the bEND cells with LPS induced secretion of MIP-2 and IL-6.

BALB/c mice [2] = assay: LPS-induced serum TNF-α and soluble ICAM-1 in mice (ELISA); type: in vivo; conditions: serum 2 hours after LPS
Description: FIG. 2 is a set of bar graphs showing P13 inhibition of serum inflammatory mediators. BALB/c mice were injected intraperitoneally (i.p.) with 5 mg/kg LPS and 30 minutes later injected i.p. with P13 (15, 50, or 75 μg) or PBS. Two hours after LPS injection, serum was collected and TNF-α and soluble ICAM-1 were quantified by ELISA. Values represent means +/−S.D.
Serum cytokines and soluble ICAM-1. BALB/c female mice were injected intraperitoneally (i.p.) with 5 mg/kg of LPS and peptide P13 (15, 50, or 75 μg) or PBS was injected i.p. 30 minutes later. Two hours after injection of LPS, serum was collected and TNF-α and soluble ICAM-1 quantified by ELISA (R&D Systems).
To determine the effect of peptide treatment on the induction of serum inflammatory mediators, mice were injected with a sub-lethal high dose of LPS and 30 minutes later with P13 or phosphate buffered saline (PBS). Serum was collected 2 hours after treatment with LPS. TNF-α and soluble ICAM-1 were quantified by ELISA. […] The effect of delayed peptide P13 treatment at different doses of peptide on LPS-induced production of soluble ICAM-1 was examined.

BALB/c mice [3] = assay: LPS-induced sepsis model, lethality after high dose LPS; type: in vivo; conditions: LPS 70 mg/kg i.p.; peptide 75 μg s.c. at 2 and 6 hours after LPS
Description: FIG. 3 is a line graph illustrating decreased mortality in P13-treated mice after high dose LPS. BALB/c mice were injected i.p. with LPS (70 mg/kg) and 2 and 6 hrs later treated s.c. with P13 or control peptide (75 μg/mouse/injection). The mice (10 animals/group) were monitored every 3-4 hours for lethality, and the experiment was terminated after 96 hrs.
LPS-induced sepsis. Female BALB/c mice were injected i.p. with 70 mg/kg of LPS. At 2 and 6 hours after injection of LPS, mice were treated with scrambled control peptide or peptide P13. The peptides were administered subcutaneously at 75 μg/animal/injection time, with 10 mice/treatment group. The mice were monitored every 3-4 hours and the experiment was terminated after 96 hours.
As P13 inhibited production of inflammatory mediators in vivo, an LPS-induced murine sepsis model was used to determine the effect of peptide P13 on survival. Mice were injected with lethal dose of LPS (70 mg/kg) and treated 2 and 6 hours later with scrambled control peptide (75 μg) or a matching concentration of peptide P13. […] The experiment was terminated at 96 hours and P13 treated mice remained at 40% survival (FIG. 3). These studies confirm the in vivo activity of peptide P13 to reduce lethality in an LPS sepsis model even when peptide treatment is initiated after administration of LPS.

[4] = system: animals treated with low dose LPS plus D-GaLN; assay: Survival after low dose LPS plus D-GaLN; type: in vivo
HC-NPC co-cultures = assay: Inflammatory mediators in LPS-stimulated HC-NPC co-cultures; type: cell-based; conditions: stimulated with LPS
TLR-dependent signaling = conditions: in vitro; cited from earlier work

Substance	inhibition of IL-6 production [1]	inhibition of MIP-2 production [1]	inhibition of serum TNF-α (BALB/c mice [2]; 50 μg i.p. 30 min after 5 mg/kg LPS i.p.)	inhibition of serum TNF-α (BALB/c mice [2]; 75 μg i.p. 30 min after 5 mg/kg LPS i.p.)	lethality at 36 hours (BALB/c mice [3]) [%]	lethality at 74 hours (BALB/c mice [3]) [%]	survival at 96 hours (BALB/c mice [3]) [%]	survival [4]	production of inflammatory mediators (HC-NPC co-cultures)	inhibition of TLR-dependent signaling (TLR-dependent signaling)
DIVKLTVYDCI-RRRRRRRRR (listed as Vaccinia virus) [P13, A52R amino acids 125 to 135 linked to nine arginines]	> 90%	> 90%	did not reduce	significant inhibition	60	60	40	enhance survival	reduced the production of inflammatory mediators	capable of in vitro inhibition
ITCVDVDLIYK-RRRRRRRRR (ITCVDVDLIYKRRRRRRRRR; listed as Vaccinia virus) [scrambled control peptide, scrambled control of P13 with nine arginines, reference compound]	only modest inhibition	only modest inhibition			90	100				
